Patent EP2880993A1, “Method of achieving memory and learning improvement by the administration of sialic acid” (ABBOTT LABORATORIES, priority 2013, dated 2015)
“Also recorded” adds a separate entry of the source.

Experiments:
[1] = system: hippocampal CA3-CAl areas; test: Long-term potentiation (LTP) testing in vivo, Example 2; design: species or system Sprague-Dawley rat; details: 11 months old, FIG. 4; for persistence of LTP induction: after the second day, followed for up to 4 days; for fEPSP values / LTP response evoked after the HFS train, in words: compared with Control group (and NeuAc group)
Description: In order to establish the role of sialylated oligosaccharides in cognition, rat pups were supplemented with 6'-sialyllactose (6'-SL) from postnatal day 3 (PND3) and their learning and memory abilities were analyzed later in life. Rat performance in a classical spatial cognitive task (Y-maze), Novel object Recognition, protocol of spatial learning in the novel Intellicage® system, and Morris water maze were carried out once the animals reached 12 and 14 months of age. LTP response in hippocampus was also evaluated in vivo once the animals reached 11 months of age. The Y-maze, Object Recognition and the IntelliCage® allow the determination of spatial orientation and memory capabilities of experimental animals. The same female rats performed all the tests.
The pups from the second cohort were divided into three groups and given the following designations: the 6'-SL supplemented group, the NeuAc supplemented group and the control group. Initially, each group comprised 20 male pups. Due to premature deaths there were a total of 14 pups in the 6'-SL supplemented group at the end of the lactation. The 6'-SL supplemented group received 6'-SL supplementation (8 doses/day) in order to reach the same sialic acid levels as normally reared pups. The amount of 6'-SL given to the 6'-SL supplemented group was selected to follow the change in concentration of sialic acid in rat milk, ranging from 1.5 g/Kg body weight on day 3 to 0.5 g/Kg body weight at weaning. The maximum amount of sialic acid given to a pup was a maximum of 2 mg/Kg on day 8.
There were a total of 16 male pups in the NeuAc supplemented group at the end of lactation. The NeuAc supplemented group received NeuAc supplementation in order to reach the same sialic acid levels as normally reared pups. The amount of NeuAc given to the NeuAc supplemented group was selected to follow the change in concentration of sialic acid in rat milk, ranging from 1.5 g/Kg body weight on day 3 to 0.5 g/Kg body weight at weaning. The maximum amount of sialic acid given to any pup was 2 mg/Kg on day 8,
Long-term potentiation (LTP) measurements were performed in each of the three groups, i.e., the 6'-SL Supplemented Group, the NeuAc -Supplemented Group and the Control Group. The testing was done while the animals were alive and 11 months old, which is about age 40 in human years. Experiments were done in order to determine the functionality of hippocampus in vivo. […]
To evoke LTP, the following high frequency stimulation (HFS) protocol was used: each animal was subjected to five 200 Hz, 100 ms trains of pulses at a rate of l/s. […] After the HFS protocol, fEPSPs were recorded again for 30 minutes. […]
The HFS train is indicated by the downward arrow. […] The baseline was recorded at 15, 10, and 5 minutes before HFS.

rats [2] = test: Y-maze testing, Example 2 (Acquisition Trial and Retention Trial); format: in vivo, Sprague-Dawley rat; details: 14 months old; for latency to blocked arm: Retention Trial 4 hours after Acquisition Trial, compared with Control group, FIG. 6; for percentage of animals visiting the previously blocked arm first: Retention Trial, compared with control animals, FIG. 7
Description: A Y-maze test was performed when the rats were 14 months old, which corresponds to 50-55 years old in humans. Eight rats in each group were tested. The Y-maze testing was performed in two phases: an Acquisition Trial and a Retention Trial. Rats in each group were evaluated in the Y-maze.
(§1) During the Acquisition Trial, one of the three arms of the Y-maze was blocked, and animals were allowed to explore the other two arms for 15 minutes. The Retention Trial took place 4 hours after the Acquisition Trial. During the Retention Trial, all three arms were open and animals were allowed to explore for 5 minutes. The amount of time each animal spent at the start of the Y-maze and each arm was evaluated.

rats [3] = test: Intellicage testing, Example 2; format: in vivo, Sprague-Dawley rat; details: 14-15 months old, compared with Control group; for visits to the correct corner versus the incorrect corner (performance): FIG. 8
Description: IntelliCage® (NewBehavior AG) is a computer-based, fully automated testing apparatus used to analyze spontaneous and learned behavior. Eight rats in each group were tested. The rats were 14-15 months old, which corresponds to 55-60 years old for humans, when these tests were performed. Animals remain in the cage during several days and behavior is recorded during the entire testing period. Different paradigms can be tested by restricting water access to specific places and time periods. Each animal is assigned a corner where it can access water. Access to the water is only allowed during discrete time periods. Thus, each animal must learn when access to water bottles is allowed and which corner, out of four, has been assigned to it. Access to the corner is controlled by a door that opens only when the assigned rat enters its nose in a hole. […] Access to non-assigned corners remain blocked except during two 90 min periods during the night.

rats [4] = test: Novel Object Recognition testing, Example 2; format: in vivo, Sprague-Dawley rat; details: 13 months old, retention test one day after acquisition phase, FIG. 5
Description: Perirhinal cortex and hippocampus are involved in the novel object recognition task. Novel Object Recognition Testing was performed when the rats were 13 months old, which corresponds to 45-50 years old for humans. Eight animals were tested.
During a habituation phase of the test, the rats were allowed to explore an "arena" for 20 minutes per day for 3 consecutive days. The arena was a black, open plastic chamber. Next, an acquisition phase took place wherein the animals interfaced with two different objects. These object are defined as "familiar." The rats were allowed to the arena while the familiar objects were present for 10 minutes. One day after the acquisition phase, a retention test was performed on the rats, wherein one of the familiar objects was replaced by a new object. The new object is defined as "novel." The rats were allowed to explore the arena for 5 minutes during the retention test. In theory, animals that remember familiar objects will spend more time exploring the novel object than the familiar one.

[5] = system: hippocampal CA3-CAl areas; test: Long-term potentiation (LTP) testing in vivo, Example 1; design: species or system Sprague-Dawley rat; details: PND110; for LTP response evoked by the stimulus, in words: compared with Control Group and Reference Group
Description: Long-term potentiation (LTP) measurements were performed in each of the three groups, i.e., the Control Group, the SIA-supplemented Group and the Reference Group. The testing was done while the animals were alive and at postnatal day 110 (PND110). Postnatal day 110 in rats equates to approximately 10 to 20 years of age in the lifespan of a human. Since hippocampus is a key brain structure related to LTP memory, experiments were done in order to determine the functionality of hippocampus in vivo. Long-term potentiation (LTP) is considered as the electrophysiological base of memory. In these experiments, a higher response indicates better memory potential.
The test was performed after implantation of electrodes in the hippocampal CA3-CAl areas of the rats in each group. There were seven rats per group. Each animal had 4 electrodes inserted and LTP measurements were taken from each electrode. Synaptic field potentials in the CAl area were evoked by paired (40 ms of interval) 100 µs, square, biphasic (negative-positive) pulse applied to Schaffer collaterals. For each animal, the stimulus intensity was set well below the threshold for evoking a population spike, usually 30-40% of the intensity necessary for evoking a maximum field excitatory postsynaptic potential ("fEPSP') response. An excitatory postsynaptic potential (EPSP) is a temporary depolarization of postsynaptic membrane potential caused by the flow of positively charged ions into the postsynaptic cell as a result of opening of ligand-gated ion channels.
To evoke LTP, the following high frequency stimulation (HFS) protocol was used: each animal was subjected to five 200 Hz, 100 ms trains of pulses at a rate of l/s. These trains were presented 6 times in total, at intervals of 1 minutes. After the HFS protocol, fEPSPs were recorded again for 30 minutes. Additional recordings were carried out for 15 minutes during the 3 following days.
FIG. 3 depicts the results of the Long-term Potentiation Testing. FIG. 3 illustrates the results of induction of LTP by the use of a high-frequency stimulation (HFS) protocol. Results correspond to the slope of the field excitatory postsynaptic potential ("fEPSP') evoked by a second electronic pulse (which took place 40 ms after a first pulse). Significant differences (p < 0.05) are indicated by the following signs: "*" indicates the differences between the SIA-supplemented Group and the Control Group; and "†" indicates the differences between the Reference Group and the Control Group. Average baseline fEPSP for each group was assigned the value of 100, and the rest of the fEPSP were referred to that value.

rats [6] = test: Y-maze testing, Example 1 (Retention Trial and Memory Trial); format: in vivo, Sprague-Dawley rat; details: PND90
Description: In order to establish the role of free sialic acid in cognition, rat pups were supplemented with free N-Acetylneuraminic acid (Neu5Ac) from postnatal day 3 (PND3) and their learning and memory abilities were analyzed later in life. Rat performance in a classical spatial cognitive task (Y-maze) was evaluated once the animals […]. LTP response in hippocampus was also evaluated postnatal day 110 (PND110).
The pups from the second cohort were divided into two groups and given the following designations: the SIA-supplemented group and the Control group. Pups in the SIA - supplemented group were given milk containing low sialic acid, and received a supplementation of free sialic acid since the same day of transfer to the foster mothers until weaning. There were a total of 12 male pups in the SIA -supplemented group. The SIA -supplemented group received free sialic acid supplementation (8 doses/day) in order to reach the same free sialic acid levels as normally reared pups. The amount of free sialic acid given to the SIA-supplemented group was selected to follow the change in concentration of sialic acid in rat milk, ranging from 1.5 g/Kg body weight on day 3 to 0.5 g/Kg body weight at weaning. The amount of sialic acid given to any pup was a maximum of 1.8 mg/Kg body weight on day 8.
The Y-maze is a widely accepted method of testing spatial orientation and memory capabilities in rats. Ten rats in each group were evaluated in the Y-maze. At postnatal day 90 (PND90) for each group, the rats were subjected to a training trial (hereinafter, the "Training Trial"). The approximate equivalent in human years to 90 days of rat life is 10 to 20 years of age. At 5 minutes post training, rats in each group were tested again to test their retention (hereinafter, the "Retention Trial"). At 48 hours post training, rats in each group were tested again to test their memory, (hereinafter, the "Memory Trial").
as §1, with “Training” for “Acquisition”, “minutes.” for “minutes. The Retention Trial took place 4 hours after the Acquisition Trial.”, “Retention Trial and the Memory” for “Retention”
During the Memory Trial, performed 48 hours after the Training Trial, a long time spent at the start of the Y-maze denotes anxiety and neophobia. Conversely, the longer time an animal spent at the novel arm indicates an interest in novelty and apparent ability to recognize which arms they had visited previously.

[7] = Memory Trial 48 hours post training, read from FIG. 2

SMILES | persistence of LTP induction [1] | fEPSP values / LTP response evoked after the HFS train, in words [1] | fEPSP values / LTP response evoked after the HFS train, in words ([1]; listed as 6'SL) | latency to blocked arm (rats [2]) | percentage of animals visiting the previously blocked arm first (rats [2]) | speed of learning (rats [3]) | visits to the correct corner versus the incorrect corner (performance) (rats [3]) | time spent exploring the novel object versus the familiar object (rats [4]) | persistence of LTP response ([5]; 72 hours post stimulus) | fEPSP slope after high-frequency stimulation ([5]; average baseline fEPSP assigned the value of 100, FIG. 3) | fEPSP slope forty-eight hours after high-frequency stimulation ([5]; baseline = 100, FIG. 3) | fEPSP slope seventy-two hours after high-frequency stimulation ([5]; baseline = 100, FIG. 3) | fEPSP slope twenty-four hours after high-frequency stimulation ([5]; baseline = 100, FIG. 3) | LTP response evoked by the stimulus, in words [5] | LTP response evoked by the stimulus, in words ([5]; listed as free sialic acid) | time spent exploring the novel object versus the familiar object (rats [4]; listed as NeuAc) | time spent in the novel arm (rats [6]; [7]) | time spent in the start arm (rats [6]; [7]) | Y-maze performance, in words (rats [6]; compared with Reference Group / non-supplemented control animals, listed as free sialic acid) | novel arm preference (percentage of animals that preferred the novel arm first) (rats [6]; Retention Trial 5 minutes post training, pups supplemented PND3 to weaning, read from FIG. 1)
CC(=O)NC1C(O)CC(OCC2OC(OC3C(CO)OC(O)C(O)C3O)C(O)C(O)C2O)(C(=O)O)OC1C(O)C(O)CO (stereo not shown) [6'-SL, 6'-sialyllactose] | remaining; also recorded: remained at elevated levels even 4 days post stimulus | significantly larger | strongest response; also recorded: significantly higher LTP response levels than those of the control group | lower values of latency to the blocked arm in comparison with Control group | significantly higher than that of the control animals | seemed to learn faster than the Control group | performed better compared to the Control group | significantly more time visiting the novel object than the familiar one; also recorded: distinguish better between the familiar and novel object | – | – | – | – | – | – | – | – | – | – | – | –
CC(=O)N[C@H]1[C@H]([C@H](O)[C@H](O)CO)OC(O)(C(=O)O)C[C@@H]1O (stereo partly shown) [SIA, N-Acetylneuraminic acid] | remaining | – | – | lower values of latency to the blocked arm in comparison with Control group | significantly higher than that of the control animals | seemed to learn faster than the Control group | performed better compared to the Control group | – | remained at high levels | about 220 | ~160 | ~140 | about 205 | strongest response | significantly higher LTP response levels than those of the control group | significantly more time visiting the novel object than the familiar one; also recorded: distinguish better between the familiar and novel object | about 65 seconds | about 40 seconds | performed better and similarly to reference animals | about 57%
